Data published in US11279733B2, “Peptide antibiotics” (priority 2017, dated 2022).
Values after ≈ are worked out from the molar mass of the structure shown. Like-named read-outs stand apart in the source and are kept apart here. Positions of bridges follow the written chain, without caps; N, C: chain ends. Non-standard residues stand in square brackets, D forms with d. Residues, ends and D or L forms follow the SMILES beside them. *: point of attachment. Decanoyl(3R-OH) = CCCCCCC[C@@H](O)CC(=O)*; dDab = NCC[C@@H](N)C(=O)O; Dab = NCC[C@H](N)C(=O)O

How the values were obtained:
A. baumannii ATCC 19606 = details: ATCC 19606
How it was run: (§1)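 Mid-log cultures grown in Mueller Hinton broth at 37° C were tested by 2-fold broth microdilution at 5×10^5 CFU/mL final. Compounds were dissolved in water and tested over a final range of 32 to 0.015 μg/mL.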

A. baumannii GN_093 PmxR = details: GN 093 PmxR
How it was run: as §1

E. coli ATCC 25922 = details: ATCC 25922
How it was run: as §1

K. pneumoniae ATCC 13883 = details: ATCC 13883
How it was run: as §1

[1] = tested on: K. pneumoniae ATCC 700603, MDR; details: ATCC 700603
How it was run: as §1

[2] = tested on: K. pneumoniae ATCC BAA-2146, NDM-1 pos; details: ATCC BAA-2146
How it was run: as §1

[3] = tested on: K. pneumoniae GN_102 PmxR; details: GN 102 PmxR
How it was run: as §1

[4] = tested on: K. pneumoniae GN_106, PmxR; details: GN 106, PmxR
How it was run: as §1

P. aeruginosa ATCC 27853 = details: ATCC 27853
How it was run: as §1

[5] = tested on: P. aeruginosa GN_043, PmxR
How it was run: as §1

[6] = tested on: P. aeruginosa GN_105, PmxR; details: GN 105, PmxR
How it was run: as §1

[7] = tested on: S. aureus ATCC 25923, MSSA; details: ATCC 25923
How it was run: as §1

in vitro = details: human
Experimental: Cytotoxicity of the synthesised peptides was evaluated by comparison with commercially available colistin (polymyxin E), polymyxin B (Sigma chemical Co., St. Louis, Mo., U.S.A.) and synthetic octapeptin C4 by conducting lactate dehydrogenase (LDH) assay. CC50 values calculated based on curve fitting of dose dependent inhibition of cell growth represented the cytotoxicity of the peptide. Human kidney 2 (HK2) cells were seeded as 2000 cells per well in a 384 well cell culture plate in a final volume of 20 μL in DMEM/F12 medium (Invitrogen #11330057), in which 10% of FBS was added. Cells were incubated for 24 hours at 37° C., 5% CO2 to allow cells to attach to the plates. Similar conditions were employed for HEK293 and HepG2 cytotoxicity assays.
Colistin and polymyxin B were tested from a range of 2 mM to 0.9 μM. 120 μL of the 1 mM stock solutions in water of each synthesised peptide were freeze-dried and processed for LDH assay. After freeze-dry procedure, the compounds were reconstituted into 600 μM solutions using culture media. All tested compounds were diluted from 600 μM to 0.27 μM in 3-fold dilutions. Then 20 μL of each dilution was added into 20 uL of culture medium in quadruplicate to reach the final concentrations. The cells were incubated with the compounds for 24 h at 37° C., 5% CO2. After the incubation, 5 μL of culture medium was added to 50 μL of LDH assay buffer and incubated for 1 h at room temperature. The absorbance was read at 450 nm using Polarstar. The data was then analysed by Prism software. […] Nephrotoxicity Assessment in Human Proximal Tubule Cells.

SMILES	MIC A. baumannii GN_093 PmxR (A. baumannii GN_093 PmxR)	MIC K. pneumoniae GN_102 PmxR [3]	MIC K. pneumoniae GN_106, PmxR [4]	MIC P. aeruginosa GN_105, PmxR [6]	CC50 at 24 h (in vitro)	MIC, A. baumannii ATCC 19606 (A. baumannii ATCC 19606)	MIC, E. coli ATCC 25922 (E. coli ATCC 25922)	MIC, K. pneumoniae ATCC 13883 (K. pneumoniae ATCC 13883)	MIC, K. pneumoniae ATCC 700603, MDR [1]	MIC, K. pneumoniae ATCC BAA-2146, NDM-1 pos [2]	MIC, P. aeruginosa ATCC 27853 (P. aeruginosa ATCC 27853)	MIC P. aeruginosa GN_043, PmxR ([5]; Table 6, polymyxin-resistant)	MIC, S. aureus ATCC 25923, MSSA [7]	also measured
CCCCCCC[C@@H](O)CC(=O)N[C@H](CCN)C(=O)N[C@H]1CCNC(=O)[C@H](CC(C)C)NC(=O)[C@H](CCN)NC(=O)[C@H](CCN)NC(=O)[C@H](CC(C)C)NC(=O)[C@H](C)NC(=O)[C@H](CCN)NC1=O [compound 4947, 3(R)OH-nC9CO-D-Dab-cyc[L-Dab-L-Dab-L-Ala-L-Leu-L-Dab-L-Dab-L-Leu]] ({Decanoyl(3R-OH)}-[dDab][Dab][Dab]AL[Dab][Dab]L; lactam 2-C)	>32 µg/mL	>32 µg/mL	>32 µg/mL	>32 µg/mL	213 µM	–	–	–	–	–	–	–	–	MIC A. baumannii ATCC 19606 (A. baumannii ATCC 19606): >32 µg/mL; MIC E. coli ATCC 25922 (E. coli ATCC 25922): >32 µg/mL; MIC K. pneumoniae ATCC 13883 (K. pneumoniae ATCC 13883): >32 µg/mL; MIC K. pneumoniae ATCC 700603, MDR [1]: >32 µg/mL; MIC K. pneumoniae ATCC BAA-2146, NDM-1 pos [2]: >32 µg/mL; MIC P. aeruginosa ATCC 27853 (P. aeruginosa ATCC 27853): 32 µg/mL (≈ 33 µM); MIC P. aeruginosa GN_043, PmxR ([5]; P. aeruginosa GN_043, PmxR): >32 µg/mL; MIC S. aureus ATCC 25923, MSSA [7]: >32 µg/mL
CCCCCCC[C@@H](O)CC(=O)N[C@H](CCN)C(=O)N[C@H]1CCNC(=O)[C@H](CC(C)C)NC(=O)[C@H](CCN)NC(=O)[C@H](CCN)NC(=O)[C@H](CC(C)C)NC(=O)[C@@H](Cc2ccccc2)NC(=O)[C@H](C)NC1=O [compound 4948, 3(R)OH-nC9CO-D-Dab-cyc[L-Dab-L-Ala-D-Phe-L-Leu-L-Dab-L-Dab-L-Leu]] ({Decanoyl(3R-OH)}-[dDab][Dab]A[dF]L[Dab][Dab]L; lactam 2-C)	–	–	–	–	112 µM	>32 µg/mL	16 µg/mL (≈ 15.8 µM)	16 µg/mL (≈ 15.8 µM)	16 µg/mL (≈ 15.8 µM)	8 µg/mL (≈ 7.88 µM)	1 µg/mL (≈ 0.985 µM)	–	–	MIC, A. baumannii Cl Ptyela 10073 4512:2, PmxR (A. baumannii GN_093 PmxR): >32 µg/mL; MIC, K. pneumoniae Cl Koprana 10065 0661:1, PmxR [3]: 8 µg/mL (≈ 7.88 µM); MIC, K. pneumoniae Cl 138-16347-20362, PmxR [4]: 16 µg/mL (≈ 15.8 µM); MIC, P. aeruginosa FADDI-PA070, PmxR ([5]; Table 5, polymyxin-resistant): 1 µg/mL (≈ 0.985 µM); MIC, P. aeruginosa PA9704, PmxR [6]: >32 µg/mL; MIC, S. Aureus ATCC 25923, MSSA [7]: >32 µg/mL
CCCCCCC[C@@H](O)CC(=O)N[C@@H](C)C(=O)N[C@H]1CCNC(=O)[C@H](CC(C)C)NC(=O)[C@H](CCN)NC(=O)[C@H](CCN)NC(=O)[C@H](CC(C)C)NC(=O)[C@@H](Cc2ccccc2)NC(=O)[C@H](CCN)NC1=O [compound 4950, 3(R)OH-nC9CO-L-Ala-cyc[L-Dab-L-Dab-D-Phe-L-Leu-L-Dab-L-Dab-L-Leu]] ({Decanoyl(3R-OH)}-A[Dab][Dab][dF]L[Dab][Dab]L; lactam 2-C)	>32 µg/mL	8 µg/mL (≈ 7.88 µM)	32 µg/mL (≈ 31.5 µM)	32 µg/mL (≈ 31.5 µM)	286 µM	>32 µg/mL	32 µg/mL (≈ 31.5 µM)	16 µg/mL (≈ 15.8 µM)	16 µg/mL (≈ 15.8 µM)	16 µg/mL (≈ 15.8 µM)	16 µg/mL (≈ 15.8 µM)	16 µg/mL (≈ 15.8 µM)	>32 µg/mL	–
CCCCCCC[C@@H](O)CC(=O)N[C@H](C)C(=O)N[C@H]1CCNC(=O)[C@H](CC(C)C)NC(=O)[C@H](CCN)NC(=O)[C@H](CCN)NC(=O)[C@H](CC(C)C)NC(=O)[C@@H](Cc2ccccc2)NC(=O)[C@H](CCN)NC1=O [compound 4951, 3(R)OH-nC9CO-D-Ala-cyc[L-Dab-L-Dab-D-Phe-L-Leu-L-Dab-L-Dab-L-Leu]] ({Decanoyl(3R-OH)}-[dA][Dab][Dab][dF]L[Dab][Dab]L; lactam 2-C)	32 µg/mL (≈ 31.5 µM)	4 µg/mL (≈ 3.94 µM)	8 µg/mL (≈ 7.88 µM)	16 µg/mL (≈ 15.8 µM)	120 µM	32 µg/mL (≈ 31.5 µM)	16 µg/mL (≈ 15.8 µM)	16 µg/mL (≈ 15.8 µM)	8 µg/mL (≈ 7.88 µM)	8 µg/mL (≈ 7.88 µM)	8 µg/mL (≈ 7.88 µM)	8 µg/mL (≈ 7.88 µM)	32 µg/mL (≈ 31.5 µM)	–
